Where “and” joins values, the source holds several entries; their conditions need not be identical. Equal values may be shown once. Read-outs that look alike come from different tables or passages of the source.
Columns and labels:
[1] = Adsorption of drug on TiO2 nanoparticles; assay type: physicochemical
Protocol: To a stirred solution of Sodium Risedronate (625 mg) in deionized water (100 ml) increasing amounts of nanocrystalline TiO2 were added (ca. 20 nm nanoparticle size). […] This limit probably corresponds to a total surface coverage of the nanoparticles.
190 mg of Sodium Risedronate were adsorbed at 25° C. on 3.00 g of TiO2 nanoparticles having an average diameter of 20-25 nm.
(§1) To an aqueous solution containing 625 mg of Sodium Risedronate in 100 ml of deionized water 3.00 g of TiO2 was added. The suspension was stirred for 72 h at room temperature and then centrifuged at 4000 rpm for 10 min. The solid was suspended twice in a pH 1 HCl solution, stirred for 20 min and centrifuged. The solid was finally dried at 40° C. under vacuum.
(§2) A NMR-based method was developed since alendronate lacks the chromophoric group of risedronate. The NMR experiments were carried out in H2O instead of D2O (or other deuterated solvents) simply using the aqueous solutions obtained after removal of TiO2 by centrifugation without concentration or further treatment. Only a small amount of C6D6 in a sealed capillary tube (reusable) inserted into the NMR tube was required to achieve the field lock. […] To determine the concentration of sodium alendronate in aqueous solutions, a known amount of an internal standard was added before each NMR measurements, namely 1,3,5-triaza-7-phospha-adamantane, a water-soluble phosphine.
TiO2 (25 nm, 1.00 g) was added to a solution of Sodium Alendronate trihydrated (207 mg, 0.64 mmol) in H2O (50 ml) and the resulting suspension (pH 4.5) was vigorously stirred in the dark at 25° C. for 48 h, then centrifuged (4,000 rpm, 5 min). The cloudy supernatant was recovered, treated with solid NaCl (ca. 3 g), kept at room temperature for 2 h, and centrifuged (4,000 rpm, 5 min). To the resulting solution was added 1,3,5-triaza-7-phospha-adamantane and the concentration of residual sodium alendronate was estimated by ^31P-NMR as described above.

[2] = Protocol: as §2
Sodium Alendronate trihydrated was adsorbed on TiO2 as described above. After centrifugation, the recovered solid was dried at 40° C./0.1 mbar for 6 h. A suspension of this solid in 50 ml of aqueous HCl (pH 1.0) or NaOH (pH 9.0) was vigorously stirred at the stated temperature in a nitrogen atmosphere. The pH of the basic solution was constantly monitored and maintained at the initial level by addition of 0.05 M NaOH.

[3] = Desorption of Sodium Risedronate from TiO2 in aqueous solution at different pH; assay type: physicochemical; conditions: for amount released, % of the initial concentration on TiO2: pH=8, 25° C.
Protocol: Desorption of Sodium Risedronate from TiO2 at 25° C. was studied in aqueous solution at different pH values.
The desorption as function of time of Sodium Risedronate from TiO2 was studied in aqueous solution at pH 9 and at 36° C.
as §1
Nine separate 30 mg portions of TiO2 adsorbed with Sodium Risedronate were suspended in 10 ml of pH 9 NaOH solutions and left stirring for different times in the range 1-120 min. During drug desorption the pH of the suspension was kept at the original value by small addition of NaOH solution. In all cases the concentration of desorbed drug was corrected for volume changes.

[4] = in vivo; cited from earlier work
[5] = 1.00 g TiO2 (25 nm), 24 h stirring, 25° C.
[6] = 250 mg of TiO2 carrying 16 mg of drug

| Compound | amount adsorbed on TiO2 ([1]; 1.00 g TiO2 (25 nm), 207 mg in 50 ml H2O, 48 h stirring, 25° C.) [mg] | amount adsorbed on TiO2 [1, 5] [mg] | amount adsorbed, % of the initial amount [1, 5] [%] | amount adsorbed, % of the initial amount ([1]; 1.00 g TiO2 (25 nm), 48 h stirring, 25° C.) | release to the intestine [2, 6] [mg] | Desorption ([2]; pH 1.0, 2 h stirring at 25° C.) | Desorption ([2]; pH 9.0, 30 min stirring at 25° C.) [%] | Desorption ([2]; pH 9.0, 2 h stirring at 25° C.) [%] | Desorption ([2]; pH 9.0, 6 h stirring at 37° C.) | amount of drug which can be adsorbed on the surface of the nanocrystalline substrate ([1]; 625 mg in 100 ml deionized water, increasing amounts of TiO2 ca. 20 nm, limit value) [%] | amount adsorbed on TiO2 ([1]; on 3.00 g of TiO2 nanoparticles (20-25 nm), 25° C./room temperature, from 625 mg) [mg] | amount of drug released in the intestine [3, 6] [mg] | release in the gastroesophageal region [3, 6] | adsorbed drug desorbed ([3]; pH 9, 36° C., after 1 minute) [%] | amount of drug released ([3]; pH 9, 36° C., in the next 60 min) [%] | amount of drug released ([3]; pH 9, 36° C., longer times (up to 120 min), constant) [%] | amount released, % of the initial concentration on TiO2 ([3]; after 30 min) [%] | amount released, % of the initial concentration on TiO2 ([3]; after 2 hours) [%] | oral bioavailability [4] [%] |
| --- | --- | --- | --- | --- | --- | --- | --- | --- | --- | --- | --- | --- | --- | --- | --- | --- | --- | --- | --- |
| NCCCC(O)(P(=O)(O)O)P(=O)(O)O [Sodium Alendronate] | 71 | 66 | 32 | 34% and 26-34% | 4 | not detected | 8 | 12 | 22% and 16-22% |  |  |  |  |  |  |  |  |  |  |
| O=P(O)(O)C(O)(Cc1cccnc1)P(=O)(O)O [Sodium Risedronate] |  |  |  |  |  |  |  |  |  | 31 | 190 | 6 to 9 | negligible release | 25 | 36 | 36 | ~35 | 35 | 0.63 |

— patent publication US20080206347A1, “Pharmaceutical Formulations Comprising Active Pharmaceutical Principles Adsorbed on Titanium Dioxide Nanoparticles” (FLAMMA S.P.A., priority 2005, published 2008)
